We go through three molecules from patent publication US5481043A, “Phenone compounds, manufacturing method and pharmaceutical preparations containing them” (priority 1991, dated 1996).

Experiment [1] deals with PAF-induced bronchial asthma. Put plainly: Asthma-protective action in guinea pigs: PAF-induced bronchial asthma (inhalation, dual-chamber body plethysmograph). Format: in vivo, guinea pig. The following applies: for effects on PAF-induced and allergic reactions compared with androsin (in words): PAF-induced and allergic (ovalbumin) reactions. How it is done:
(§1) b) Asthma-protective action of the acetophenone compound in guinea pigs.
(§2) Male white "Pirbright" guinea pigs were sensitized to ovalbumin by means of the well-known methods. Inhalation experiments were conducted 4 to 6 weeks later.
(§3) Spontaneously breathing animals were placed in a dual-chamber body plethysmograph in which the two chambers were separated around the head of the animals by a rubber collar filled with water. Changes in volume in the two chambers were measured by means of pressure transfer systems. The degree of bronchial obstruction was determined by means of the parameter, "compressed air". This technique is ten times more sensitive than other invasive methods (Dorsch et al., Pflugers Arch., 1981, 391: 236 to 241).
(§4) Groups of 10 to 14 animals were divided into two sub-groups and either treated with the test substance or with a solution. Three or four days later the experiments were repeated with those animals which had previously been given the control being given the test substance and vice-versa (each animal was once given either the test substance or the solvent).
Ovalbumin, histamine and acetylcholine were dissolved in saline solution; PAF was first dissolved in ethanol and then in saline solution containing 0.25% of bovine serum albumin to a final concentration of 1 μg PAF per ml. Ovalbumin, PAF, histamine and acetylcholine were administered in the form of an aerosol produced by ultrasound.
The effect of the test substance on the PAF-induced hyperreactivity was studied by means of successive inhalation of histamine, PAF and histamine. One group of animals was divided into two sub-groups with both sub-groups inhaling histamine in a dose leading to moderate bronchial obstruction. One hour later, one group was given the substance to be tested and the other group was given the solvent alone. Both groups were induced later by the successive inhalation of PAF and histamine. First 1 μg of PAF and 60 minutes later the same dose of histamine as before was given. The second contact with histamine in control animals usually leads to asthmatic reactions which are three times as great as after the first contact, […]

Experiment [2] concerns allergic bronchial asthma (ovalbumin inhalation). Kind of experiment: Asthma-protective action in guinea pigs: allergic (ovalbumin-induced) bronchial asthma (inhalation, dual-chamber body plethysmograph). In kind it is in vivo, guinea pig. The method, then:
as §1, §2, §3, §4
Ovalbumin, histamine and acetylcholine were dissolved in saline solution; PAF was first dissolved in ethanol and then in saline solution containing 0.25% of bovine serum albumin to a final concentration of 1 μg PAF per ml. […]

Experiment [3] has as its system human peripheral leukocytes. Put plainly: Inhibition of histamine release from human peripheral leukocytes. The following applies: for inhibition at 0.1 µg/mL / inhibition at 1 µg/mL / inhibition at 10 µg/mL / inhibition at 100 µg/mL: Homo sapiens, Leukocyte; for inhibition at 0.1 µg/mL: 0.0001 mg/ml; for inhibition at 1 µg/mL: 0.001 mg/ml; for inhibition at 10 µg/mL: 0.01 mg/ml; for inhibition at 100 µg/mL: 0.1 mg/ml. Format: cell-based. The method, then:
Venous blood was withdrawn from atopic donors and the peripheral leukocytes were obtained by means of dextran sedimentation. The purified cells were preincubated with three or four different concentrations of the substance to be tested and with the solvent alone. After 10 minutes, rabbit antihuman IgE antibodies, plasma containing anaphylatoxin (C5a) according to Vallota and Muller-Eberhard, calcium ionophore or saline solution were added to the cells. 30 minutes later, the reaction was stopped and the histamine concentration was measured in the […] by means of spectrofluorometry.
The results are shown in table 1 with the inhibition of the histamine release shown in percent of the maximal release by perchloric acid, corrected by the spontaneous release without stimulation.

[4] abbreviates: oral dose of 10 mg/kg body weight.
The mark [5] stands for this setting: A 12387 (calcium ionophore) stimulus.

Each structure is given as a SMILES string.

For `COc1ccc(C(=O)CO)c(OC)c1` [2,4-dimethoxy-2-hydroxyacetophenone], the “effects on PAF-induced and allergic reactions compared with androsin (in words)” value in experiment [1] is recorded as “Essentially, the same effects are achieved”.

Regarding `COc1cc(C(C)=O)ccc1O[C@@H]1O[C@H](CO)[C@@H](O)[C@H](O)[C@H]1O` [Androsin, androsin], the “reduction of PAF-induced reactions” value in experiment [1] (aerosol, 0.5 mg/animal) amounted to 72%. Besides, the “reduction of PAF-induced bronchial asthma in vivo” value in experiment [1] (setting [4]) came to 72%. Further, the “reduction of allergic reactions” value in experiment [2] (aerosol, 0.5 mg/animal) is 67%. The “reduction of allergic bronchial asthma in vivo” value in experiment [2] (setting [4]) is 67%. In addition, in experiment [3] (setting [5]), the inhibition at 0.1 µg/mL was -3.6%, the inhibition at 1 µg/mL is -0.4%, the inhibition at 10 µg/mL was -14.9% and the inhibition at 100 µg/mL is -12.5%. Moreover, in experiment [3] (C5a stimulus), the inhibition at 0.1 µg/mL was -5.4%, the inhibition at 1 µg/mL was -4.5%, the inhibition at 10 µg/mL turned out to be 3.7% and the inhibition at 100 µg/mL is -4.3%. In addition, in experiment [3] (α-IgE stimulus), the inhibition at 0.1 µg/mL turned out to be 2.8%, the inhibition at 1 µg/mL was 0.5%, the inhibition at 10 µg/mL came out at 5.5% and the inhibition at 100 µg/mL turned out to be 10.9%. Also, the “inhibition of histamine release in vitro (in words)” value in experiment [3] (in vitro experiment of table 1) is given as “not effective”.

Regarding `COc1cc(C(C)=O)ccc1O` [apocynin], the “effects on PAF-induced and allergic reactions compared with androsin (in words)” value in experiment [1] was “Essentially, the same effects are achieved”.

Broadly, the inhibition is the relative decrease from the control value, in per cent.
